Laboratory results from US20150352108A1, “AMINO-PYRIMIDINE COMPOUNDS AS INHIBITORS OF TBK1 AND/OR IKK EPSILON” (Alzheimer's Institute of America, priority 2009, published 2015).
Read-outs that look alike come from different tables or passages of the source.

Assays:
IKKε = target: T1, IKKε (Homo sapiens, UniProt Q14164); assay: In-vitro IKKε kinase assay ([γ33]ATP filter-plate); format: biochemical
T1 construct: His-tag; made in house; host or cells: Sf9 insect cells
T1 sequence (Q14164 1-716): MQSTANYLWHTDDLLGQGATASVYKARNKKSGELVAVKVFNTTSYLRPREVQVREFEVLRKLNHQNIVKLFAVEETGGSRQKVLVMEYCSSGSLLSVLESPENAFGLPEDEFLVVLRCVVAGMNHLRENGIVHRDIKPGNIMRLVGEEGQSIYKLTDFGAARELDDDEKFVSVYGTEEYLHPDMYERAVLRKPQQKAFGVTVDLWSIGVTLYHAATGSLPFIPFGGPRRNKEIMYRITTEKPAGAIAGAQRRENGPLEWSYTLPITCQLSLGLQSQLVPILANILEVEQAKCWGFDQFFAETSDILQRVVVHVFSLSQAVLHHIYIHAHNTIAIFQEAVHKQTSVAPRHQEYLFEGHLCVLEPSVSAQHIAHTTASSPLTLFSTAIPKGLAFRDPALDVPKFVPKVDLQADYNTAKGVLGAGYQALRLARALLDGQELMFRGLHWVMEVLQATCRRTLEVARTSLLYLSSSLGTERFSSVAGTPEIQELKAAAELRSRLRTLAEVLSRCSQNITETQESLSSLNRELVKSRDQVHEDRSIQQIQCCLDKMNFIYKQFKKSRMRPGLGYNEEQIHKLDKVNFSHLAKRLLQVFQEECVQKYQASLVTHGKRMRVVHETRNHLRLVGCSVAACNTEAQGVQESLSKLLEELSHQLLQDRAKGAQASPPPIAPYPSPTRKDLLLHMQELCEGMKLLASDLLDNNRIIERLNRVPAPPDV
Summary of the method: (§1)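 His-tagged Sf9-expressed kinases at 0.1 or 0.02 μg/ml (TBK1) and 0.1 or 0.015 μg/ml (IKKε) for normal and sensitized formats, with myelin basic protein or casein substrate. ATP was at 2×Km (60 μM TBK1, 32 μM IKKε) plus 0.3 μCi [γ33]ATP. Reactions ran 30-45 min, were captured on P-81 filters, and counts were normalized to DMSO.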

TBK1 = target: T2, TBK1 (Homo sapiens, UniProt Q9UHD2); assay: In-vitro TBK1 kinase assay ([γ33]ATP filter-plate); format: biochemical
T2 construct: His-tag; made in house; host or cells: Sf9 insect cells
T2 sequence (Q9UHD2 1-729): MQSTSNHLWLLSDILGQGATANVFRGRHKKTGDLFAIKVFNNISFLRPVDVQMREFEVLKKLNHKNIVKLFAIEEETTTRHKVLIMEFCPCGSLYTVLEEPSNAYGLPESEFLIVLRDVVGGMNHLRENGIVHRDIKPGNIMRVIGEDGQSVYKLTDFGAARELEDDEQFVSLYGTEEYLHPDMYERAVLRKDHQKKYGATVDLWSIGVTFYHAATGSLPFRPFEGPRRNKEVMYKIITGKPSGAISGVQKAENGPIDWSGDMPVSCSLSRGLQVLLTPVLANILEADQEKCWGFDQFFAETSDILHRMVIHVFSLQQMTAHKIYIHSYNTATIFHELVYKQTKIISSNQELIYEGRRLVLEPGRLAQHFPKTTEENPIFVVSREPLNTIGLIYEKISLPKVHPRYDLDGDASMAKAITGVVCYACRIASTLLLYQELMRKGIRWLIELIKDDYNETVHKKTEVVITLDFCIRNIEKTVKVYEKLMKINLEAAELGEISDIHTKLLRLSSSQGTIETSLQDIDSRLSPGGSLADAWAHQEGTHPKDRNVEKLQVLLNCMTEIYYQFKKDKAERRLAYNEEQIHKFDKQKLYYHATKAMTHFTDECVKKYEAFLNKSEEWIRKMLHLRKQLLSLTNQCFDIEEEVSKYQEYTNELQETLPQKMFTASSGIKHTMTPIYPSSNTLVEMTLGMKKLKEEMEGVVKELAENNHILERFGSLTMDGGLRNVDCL
Summary of the method: as §1

[1] = text bins, read-out: IC50 for inhibition of the kinase activity of IKKε
[2] = text bins, read-out: IC50 for inhibition of the kinase activity of TBK1

| Compound | IC50 (IKKε; Table 3, read-out: IKKε IC50) [nM] | IC50 (IKKε; [1]) [nM] | IC50 (TBK1; Table 3, read-out: TBK1 IC50) [nM] | IC50 (TBK1; [2]) [nM] |
| --- | --- | --- | --- | --- |
| CC(C)COc1ccc(-c2ccnc(Nc3cccc(CS(=O)(=O)NCCO)c3)n2)cc1C#N [compound 534, 1-[3-({4-[3-Cyano-4-(2-methylpropoxy)phenyl]pyrimidin-2-yl}amino)phenyl]-N-(2-hydroxyethyl) methanesulfonamide] | 0.8 | < 5 | 0.4 | < 10 |
| CN(C)c1cccc(Nc2nccc(-c3ccc(OC4CCOCC4)c(C#N)c3)n2)c1 [compound 539, 5-(2-{[3-(Dimethylamino)phenyl]amino}pyrimidin-4-yl)-2-(tetrahydro-2H-pyran-4-yloxy)benzonitrile] |  | < 5 |  | < 10 |
| N#Cc1cc(-c2nc(Nc3ccc(N4CCOCC4)cc3)nc3[nH]cnc23)ccc1OC1CCOCC1 [compound 553] |  | 5 to 50 |  | 10 to 100 |
| CC1(C)CC1C(=O)Nc1ccc(-c2ccnc(Nc3ccc(N4CCOCC4)cc3)n2)cc1C#N (stereo not shown) [compound 554, N-[2-Cyano-4-(2-{[4-(morpholin-4-yl)phenyl]amino}pyrimidin-4-yl)phenyl]-2,2-dimethylcyclopropane-carboxamide] |  | 5 to 50 |  | < 10 |
| COCCNCc1ccc(Nc2nccc(-c3ccc(NC(=O)C4CC4)c(C#N)c3)n2)cc1 [compound 557] |  | 5 to 50 |  | 10 to 100 |
| COCCNC(=O)c1ccc(Nc2nccc(-c3ccc(NC(=O)C4CC4)c(C#N)c3)n2)cc1OC [compound 558, 4-[(4-{3-Cyano-4-[(cyclopropylcarbonyl)amino]phenyl}pyrimidin-2-yl)amino]-2-methoxy-N-(2-methoxyethyl) benzamide] |  | < 5 |  | < 10 |
| COCCNC(=O)c1ccc(Nc2nccc(-c3ccc(OCC(C)C)c(C#N)c3)n2)cc1 [compound 565, 4-({4-[3-Cyano-4-(2-methylpropoxy)phenyl]pyrimidin-2-yl}amino)-N-(2-methoxyethyl) benzamide] | 0.6 | < 5 | 2.1 | < 10 |
| N#Cc1cc(-c2ccnc(Nc3ccc(CS(=O)(=O)NCCO)cc3)n2)ccc1NC(=O)C1CC1 [compound 566, N-(2-Cyano-4-{2-[(4-{[(2-hydroxyethyl)sulfamoyl]methyl}phenyl)amino]pyrimidin-4-yl}phenyl) cyclopropane-carboxamide] |  | < 5 |  | < 10 |
| N#Cc1cc(-c2ccnc(Nc3ccc(N4CCOCC4)cc3)n2)ccc1NC(=O)CN [compound 568, N-[2-Cyano-4-(2-{[4-(morpholin-4-yl)phenyl]amino}pyrimidin-4-yl)phenyl] glycinamide] |  | 5 to 50 |  | 10 to 100 |
| N#Cc1cc(-c2ccnc(Nc3cccc(CNCCN4CCOCC4)c3)n2)ccc1OC1CCOCC1 [compound 569, 5-(2-{[3-({[2-(Morpholin-4-yl)ethyl]amino}methyl)phenyl]amino}pyrimidin-4-yl)-2-(tetrahydro-2H-pyran-4-yloxy)benzonitrile] |  | 5 to 50 |  | 10 to 100 |
| COc1cc(Nc2nccc(-c3ccc(NC(=O)C4CC4)c(C#N)c3)n2)ccc1CN1CC(OC)C1 [compound 570, N-{2-Cyano-4-[2-({3-methoxy-4-[(3-methoxyazetidin-1-yl)methyl]phenyl}amino)pyrimidin-4-yl]phenyl} cyclopropane-carboxamide] |  | 5 to 50 |  | 10 to 100 |
| COC1CN(c2cc(Nc3nccc(-c4ccc(OC5CCOCC5)c(C#N)c4)n3)ccc2C)C1 [compound 572, 5-(2-{[3-(3-Methoxyazetidin-1-yl)-4-methylphenyl]amino}pyrimidin-4-yl)-2-(tetrahydro-2H-pyran-4-yloxy)benzonitrile] |  | < 5 |  | < 10 |
| COCCNCc1ccc(Nc2nccc(-c3ccc(OCC4CC4)c(C#N)c3)n2)cc1 [compound 581, 2-(Cyclopropylmethoxy)-5-{2-[(4-{[(2-methoxyethyl)amino]methyl}phenyl)amino]pyrimidin-4-yl}benzonitrile] |  | < 5 |  | < 10 |
| N#Cc1cc(-c2ccnc(Nc3cccc(N4CCOCC4)c3)n2)ccc1OC1CCOCC1 [compound 585, 5-(2-{[3-(Morpholin-4-yl)phenyl]amino}pyrimidin-4-yl)-2-(tetrahydro-2H-pyran-4-yloxy)benzonitrile] | 0.4 | < 5 | 1.9 | < 10 |
| Cc1ccc(Nc2nccc(-c3ccc(OC4CCOCC4)c(C#N)c3)n2)cc1N1CCOCC1 [compound 590, 5-(2-{[4-Methyl-3-(morpholin-4-yl)phenyl]amino}pyrimidin-4-yl)-2-(tetrahydro-2H-pyran-4-yloxy)benzonitrile] | 0.3 | < 5 | 1.2 | < 10 |
| COCCOC1CN(c2cc(Nc3nccc(-c4ccc(OC5CCOCC5)c(C#N)c4)n3)ccc2C)C1 [compound 596, 5-[2-({3-[3-(2-Methoxyethoxy)azetidin-1-yl]-4-methylphenyl}amino)pyrimidin-4-yl]-2-(tetrahydro-2H-pyran-4-yloxy)benzonitrile] | 0.7 | < 5 | 1 | < 10 |

The next lines start with the values.

| IC50 (IKKε; Table 3, read-out: IKKε IC50) [nM] | IC50 (IKKε; [1]) [nM] | IC50 (TBK1; Table 3, read-out: TBK1 IC50) [nM] | IC50 (TBK1; [2]) [nM] | Compound |
| --- | --- | --- | --- | --- |
|  | < 5 |  | < 10 | CNS(=O)(=O)Cc1ccc(Nc2nccc(-c3ccc(OCC(C)C)c(C#N)c3)n2)cc1 [compound 606, 1-[4-({4-[3-Cyano-4-(2-methylpropoxy)phenyl]pyrimidin-2-yl}amino)phenyl]-N-methylmethane-sulfonamide] |
|  | < 5 |  | < 10 | N#Cc1cc(-c2ccnc(Nc3ccc(F)c(OCC(O)CO)c3)n2)ccc1OC1CCOCC1 (stereo not shown) [compound 608, 5-(2-{[3-(2,3-Dihydroxypropoxy)-4-fluorophenyl]amino}pyrimidin-4-yl)-2-(tetrahydro-2H-pyran-4-yloxy)benzonitrile] |
| 1.5 | < 5 | 0.6 | < 10 | N#Cc1cc(-c2ccnc(Nc3cccc(CS(=O)(=O)NCCO)c3)n2)ccc1OCC1CC1 [compound 611, 1-[3-({4-[3-Cyano-4-(cyclopropylmethoxy)phenyl]pyrimidin-2-yl}amino)phenyl]-N-(2-hydroxyethyl) methanesulfonamide] |
|  | 5 to 50 |  | < 10 | COc1cc(Nc2nc(-c3ccc(OC4CCOCC4)c(C#N)c3)c3nc[nH]c3n2)ccc1N1CCOCC1 [compound 633, 5-(2-{[3-Methoxy-4-(morpholin-4-yl)phenyl]amino}-3H-purin-6-yl)-2-(tetrahydro-2H-pyran-4-yloxy)benzonitrile] |
|  | 5 to 50 |  | 10 to 100 | COC1CN(Cc2ccc(Nc3nccc(-c4ccc(NC(=O)C5CC5)c(C#N)c4)n3)cc2)C1 [compound 634, N-{2-Cyano-4-[2-({4-[(3-methoxyazetidin-1-yl)methyl]phenyl}amino)pyrimidin-4-yl]phenyl} cyclopropane-carboxamide] |
|  | < 5 |  | < 10 | N#Cc1cc(-c2ccnc(Nc3ccc(CS(=O)(=O)NCCO)cc3)n2)ccc1OCC1CC1 [compound 637, 1-[4-({4-[3-Cyano-4-(cyclopropylmethoxy)phenyl]pyrimidin-2-yl}amino)phenyl]-N-(2-hydroxyethyl) methanesulfonamide] |
|  | < 5 |  | < 10 | CNS(=O)(=O)Cc1ccc(Nc2nccc(-c3ccc(OCC4CC4)c(C#N)c3)n2)cc1 [compound 644, 1-[4-({4-[3-Cyano-4-(cyclopropylmethoxy)phenyl]pyrimidin-2-yl}amino)phenyl]-N-methylmethane-sulfonamide] |
